# Experimental data reported in ChEMBL document CHEMBL1255343, “Activities of daptomycin and comparative antimicrobials, singly and in combination, against extracellular and intracellular Staphylococcus aureus and its stable small-colony variant in human monocyte-derived macrophages and in broth” (2008).
# Activity calls are given as the source filed them. The rule behind the calls is not given here.
# What was measured:
# Staphylococcus aureus [1] = assay: Antimicrobial activity against Staphylococcus aureus 2546; type: functional
# Staphylococcus aureus [2] = assay: Antimicrobial activity against Staphylococcus aureus 2549 small colony variants; type: functional
# Staphylococcus aureus [3] = assay: Antimicrobial activity against Staphylococcus aureus 2547 small colony variants; type: functional
# Staphylococcus aureus [4] = assay: Antimicrobial activity against Staphylococcus aureus 2548; type: functional
# Staphylococcus aureus [5] = assay: Antimicrobial activity against extracellular Staphylococcus aureus 2548 after 4 hrs in MH-II broth; type: functional, organism-based
# Staphylococcus aureus [6] = assay: Antimicrobial activity against extracellular Staphylococcus aureus 2546 after 4 hrs in MH-II broth; type: functional, organism-based
# Staphylococcus aureus [7] = assay: Antimicrobial activity against intracellular Staphylococcus aureus 2548 infected in human monocyte-derived macrophages after 48 hrs; type: functional, organism-based
# Staphylococcus aureus [8] = assay: Antimicrobial activity against extracellular Staphylococcus aureus 2549 small colony variants after 4 hrs in MH-II broth; type: functional, organism-based
Molecule,MIC (Staphylococcus aureus [1]),MIC (Staphylococcus aureus [2]),MIC (Staphylococcus aureus [3]),MIC (Staphylococcus aureus [4]),Activity (Staphylococcus aureus [5]),Activity (Staphylococcus aureus [6]),Activity (Staphylococcus aureus [7]),Activity (Staphylococcus aureus [8])
Cc1onc(-c2ccccc2)c1C(=O)N[C@@H]1C(=O)N2[C@@H]1SC(C)(C)[C@@H]2C(=O)O [OXACILLIN],0.25 µg/mL,0.5 µg/mL,0.5 µg/mL,0.25 µg/mL,–,–,–,–
GENTAMICIN,2 µg/mL,16 µg/mL,4 µg/mL,8 µg/mL,Active,Active,Active,Active
CO[C@H]1/C=C/O[C@@]2(C)Oc3c(C)c(O)c4c(O)c(c(/C=N/N5CCN(C)CC5)c(O)c4c3C2=O)NC(=O)/C(C)=C\C=C\[C@H](C)[C@H](O)[C@@H](C)[C@@H](O)[C@@H](C)[C@H](OC(C)=O)[C@@H]1C [RIFAMPIN],0.125 µg/mL,0.06 µg/mL,0.06 µg/mL,0.125 µg/mL,–,–,Active,–
CCC[C@@H]1C[C@@H](C(=O)N[C@@H]([C@H]2O[C@H](SC)[C@H](O)[C@@H](O)[C@H]2O)[C@H](C)Cl)N(C)C1 [CLINDAMYCIN],0.125 µg/mL,0.25 µg/mL,0.25 µg/mL,0.06 µg/mL,–,–,–,–
CCCCCCCCCC(=O)N[C@@H](Cc1c[nH]c2ccccc12)C(=O)N[C@H](CC(N)=O)C(=O)N[C@@H](CC(=O)O)C(=O)N[C@@H]1C(=O)NCC(=O)N[C@@H](CCCN)C(=O)N[C@@H](CC(=O)O)C(=O)N[C@H](C)C(=O)N[C@@H](CC(=O)O)C(=O)NCC(=O)N[C@H](CO)C(=O)N[C@@H]([C@H](C)CC(=O)O)C(=O)N[C@@H](CC(=O)c2ccccc2N)C(=O)O[C@@H]1C,1 µg/mL,0.5 µg/mL,1 µg/mL,1 µg/mL,Active,Active,Active,Active
